Tests used:
Format in all cases: cell-based
[1] = system: alpha-smooth muscle actin (α-SMA); test: Inhibition of TGF-β induced expression of alpha-smooth muscle actin in CFSC cells (western blot); conditions: compound at 10 μM, TGF-β (10 ng/mL), 24 hours
In short: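 Read-out is percent decrease in α-SMA western-blot band intensity, β-actin also probed, relative to TGF-β-only cells. CFSC cells were co-treated for 24 h at 37 °C with 10 ng/mL TGF-β and 10 μM compound in serum-free DMEM.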

[2] = system: A431 (epidermoid carcinoma); test: Antiproliferative activity, CCK-8 cell viability; conditions: Homo sapiens, A-431, 72 h, read-out: Inhibition of Cancerous Cells, A431; for inhibition at 3.3 µM: compound concentration of 3.3 μM; for inhibition at 10 µM: compound concentration of 10 μM; for inhibition at 30 µM: compound concentration of 30 μM
In short: (§1)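 Viability relative to DMSO controls came from CCK-8 absorbance at 450 nm after 72 h exposure at 37°C. Compound concentrations were 3.3, 10 or 30 μM, in DMEM plus 10% FBS. Results are categorised by inhibition level: at least 50%, 30 to under 50%, or under 30%.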

[3] = system: A549 (lung adenocarcinoma); test: Antiproliferative activity, CCK-8 cell viability; conditions: Homo sapiens, 72 h, read-out: Inhibition of Cancerous Cells, A549; for inhibition at 3.3 µM: compound concentration of 3.3 μM; for inhibition at 10 µM: compound concentration of 10 μM; for inhibition at 30 µM: compound concentration of 30 μM
[4] = system: B16F10 (malignant melanoma); test: Antiproliferative activity, CCK-8 cell viability; conditions: Mus musculus, B16-F10, 72 h, read-out: Inhibition of Cancerous Cells, B16F10; for inhibition at 3.3 µM: compound concentration of 3.3 μM; for inhibition at 10 µM: compound concentration of 10 μM; for inhibition at 30 µM: compound concentration of 30 μM
In short: as §1

[5] = system: HeLa (cervical cancer); test: Antiproliferative activity, CCK-8 cell viability; conditions: Homo sapiens, 72 h, read-out: Inhibition of Cancerous Cells, HELA; for inhibition at 3.3 µM: compound concentration of 3.3 μM; for inhibition at 10 µM: compound concentration of 10 μM; for inhibition at 30 µM: compound concentration of 30 μM
[6] = system: HepG2 (liver cancer); test: Antiproliferative activity, CCK-8 cell viability; conditions: Homo sapiens, 72 h, read-out: Inhibition of Cancerous Cells, HepG2; for inhibition at 3.3 µM: compound concentration of 3.3 μM; for inhibition at 10 µM: compound concentration of 10 μM; for inhibition at 30 µM: compound concentration of 30 μM
In short: as §1

[7] = system: MDA-MB-231 (breast cancer); test: Antiproliferative activity, CCK-8 cell viability; conditions: Homo sapiens, 72 h, read-out: Inhibition of Cancerous Cells, MDA-MB-231; for inhibition at 3.3 µM: compound concentration of 3.3 μM; for inhibition at 10 µM: compound concentration of 10 μM; for inhibition at 30 µM: compound concentration of 30 μM
In short: as §1

[8] = system: SW480 (colon cancer); test: Antiproliferative activity, CCK-8 cell viability; conditions: Homo sapiens, 72 h, read-out: Inhibition of Cancerous Cells, SW480; for inhibition at 3.3 µM: compound concentration of 3.3 μM; for inhibition at 10 µM: compound concentration of 10 μM; for inhibition at 30 µM: compound concentration of 30 μM
In short: as §1

CC1=C(CC(=O)O)c2cc(F)ccc2/C1=C\c1cccc(COc2ccc(F)c(F)c2)c1 [Compound A20, 2-[(1Z)-1-({3-[(3,4-Difluorophenoxy)methyl]phenyl}methylidene)-5-fluoro-2-methyl-1H-inden-3-yl]acetic acid]
inhibition at 10 µM [1]: ≥ 80%
inhibition at 3.3 µM [2]: ≥ 50%
inhibition at 10 µM [2]: ≥ 50%
inhibition at 30 µM [2]: ≥ 50%
inhibition at 3.3 µM [3]: < 30%
inhibition at 10 µM [3]: 30 to 50%
inhibition at 30 µM [3]: ≥ 50%
inhibition at 3.3 µM [4]: 30 to 50%
inhibition at 10 µM [4]: 30 to 50%
inhibition at 30 µM [4]: ≥ 50%
inhibition at 3.3 µM [5]: 30 to 50%
inhibition at 10 µM [5]: 30 to 50%
inhibition at 30 µM [5]: ≥ 50%
inhibition at 3.3 µM [6]: ≥ 50%
inhibition at 10 µM [6]: ≥ 50%
inhibition at 30 µM [6]: ≥ 50%
inhibition at 3.3 µM [7]: ≥ 50%
inhibition at 10 µM [7]: ≥ 50%
inhibition at 30 µM [7]: ≥ 50%
inhibition at 3.3 µM [8]: < 30%
inhibition at 10 µM [8]: 30 to 50%
inhibition at 30 µM [8]: ≥ 50%

CC1=C(CC(=O)O)c2cc(F)ccc2/C1=C\c1cccc(COc2ccccc2)c1 [Compound A5, (Z)-2-(5-Fluoro-2-methyl-1-(3-(phenoxymethyl)benzylidene)-1H-inden-3-yl)acetic acid]
inhibition at 10 µM [1]: ≥ 80%
inhibition at 3.3 µM [2]: < 30%
inhibition at 10 µM [2]: 30 to 50%
inhibition at 30 µM [2]: ≥ 50%
inhibition at 3.3 µM [3]: 30 to 50%
inhibition at 10 µM [3]: 30 to 50%
inhibition at 30 µM [3]: ≥ 50%
inhibition at 3.3 µM [4]: < 30%
inhibition at 10 µM [4]: 30 to 50%
inhibition at 30 µM [4]: ≥ 50%
inhibition at 3.3 µM [5]: < 30%
inhibition at 10 µM [5]: 30 to 50%
inhibition at 30 µM [5]: ≥ 50%
inhibition at 3.3 µM [6]: ≥ 50%
inhibition at 10 µM [6]: ≥ 50%
inhibition at 30 µM [6]: ≥ 50%
inhibition at 3.3 µM [7]: ≥ 50%
inhibition at 10 µM [7]: ≥ 50%
inhibition at 30 µM [7]: ≥ 50%
inhibition at 3.3 µM [8]: ≥ 50%
inhibition at 10 µM [8]: ≥ 50%
inhibition at 30 µM [8]: ≥ 50%

CC1=C(CC(=O)O)c2cc(F)ccc2/C1=C\c1cccc(COc2ccc(C(C)(C)C)cc2)c1 [Compound A22, 2-[(1Z)-1-({3-[(4-Tert-butylphenoxy)methyl]phenyl}methylidene)-5-fluoro-2-methyl-1H-inden-3-yl]acetic acid]
inhibition at 10 µM [1]: ≥ 80%
inhibition at 3.3 µM [2]: ≥ 50%
inhibition at 10 µM [2]: ≥ 50%
inhibition at 30 µM [2]: ≥ 50%
inhibition at 3.3 µM [3]: < 30%
inhibition at 10 µM [3]: 30 to 50%
inhibition at 30 µM [3]: ≥ 50%
inhibition at 3.3 µM [4]: ≥ 50%
inhibition at 10 µM [4]: ≥ 50%
inhibition at 30 µM [4]: ≥ 50%
inhibition at 3.3 µM [5]: < 30%
inhibition at 10 µM [5]: < 30%
inhibition at 30 µM [5]: ≥ 50%
inhibition at 3.3 µM [6]: 30 to 50%
inhibition at 10 µM [6]: ≥ 50%
inhibition at 30 µM [6]: ≥ 50%
inhibition at 3.3 µM [7]: ≥ 50%
inhibition at 10 µM [7]: ≥ 50%
inhibition at 30 µM [7]: ≥ 50%
inhibition at 3.3 µM [8]: 30 to 50%
inhibition at 10 µM [8]: ≥ 50%
inhibition at 30 µM [8]: ≥ 50%

CC1=C(CC(=O)O)c2cc(F)ccc2/C1=C\c1ccc(Oc2ccc(F)cc2)c(C)c1 [Compound D13, 2-[(1Z)-1-{[3-Methyl-4-(4-fluorophenoxy)phenyl]methylidene}-5-fluoro-2-methyl-1H-inden-3-yl]acetic acid]
inhibition at 10 µM [1]: < 30%
inhibition at 3.3 µM [2]: 30 to 50%
inhibition at 10 µM [2]: ≥ 50%
inhibition at 30 µM [2]: ≥ 50%
inhibition at 3.3 µM [3]: 30 to 50%
inhibition at 10 µM [3]: ≥ 50%
inhibition at 30 µM [3]: ≥ 50%
inhibition at 3.3 µM [4]: ≥ 50%
inhibition at 10 µM [4]: ≥ 50%
inhibition at 30 µM [4]: ≥ 50%
inhibition at 3.3 µM [5]: < 30%
inhibition at 10 µM [5]: 30 to 50%
inhibition at 30 µM [5]: ≥ 50%
inhibition at 3.3 µM [6]: 30 to 50%
inhibition at 10 µM [6]: 30 to 50%
inhibition at 30 µM [6]: ≥ 50%
inhibition at 3.3 µM [7]: < 30%
inhibition at 10 µM [7]: ≥ 50%
inhibition at 30 µM [7]: ≥ 50%
inhibition at 3.3 µM [8]: 30 to 50%
inhibition at 10 µM [8]: ≥ 50%
inhibition at 30 µM [8]: ≥ 50%
